From patent publication US20180235904A1, “CANNABIDIOL COMPOSITIONS INCLUDING MIXTURES AND USES THEREOF” (EARTH SCIENCE TECH, INC., priority 2014, published 2018)

Test system: RAW264.7 macrophages
Test: Stimulation of macrophages, TNFα production (ELISA)
Format: cell-based, mouse
Conditions: 24 h
Description: RAW264.7, a mouse macrophage-like cell line, was used. The cells were cultured in DMEM, supplemented with 10% fetal calf serum (FCS), in 5% CO2, 95% air, at 37° C. in an humidified incubator.
The stimulation of macrophages was assessed by TNFα production, using a mouse TNFα ELISA kit.
To study the effects of hemp oil on macrophages, cells were seeded in a 24-well plate (2×10^5 cell/well) in 1-ml medium in each well for 12 h, and then incubated with hemp oil solution of different CBD concentrations (0-10 μM) for 24 h. Cell supernatant was collected for ELISA analysis.
After the macrophages were incubated with hemp oil of different CBD concentrations (0, 1, 2.5, 5, 10 μM), the TNFα production by the cells was detected.

C=C(C)[C@@H]1CCC(C)=C[C@H]1c1c(O)cc(CCCCC)cc1O [CBD, Cannabidiol]
TNFα production (CBD concentration of 10 μM): induced TNFα production at a significantly higher level | impact on macrophages (TNFα production) (CBD concentration range of 0 to 5 μM): not significant
